In US20230395193A1 (priority 2020, published 2023):

What was measured:
[1] = test system: SARS-CoV-1, MERS-CoV and SARS-CoV-2 proteins in HEK293T cells; parameters: species or system human
SARS-CoV-1 (Urbani) = format: cell-based
SARS-CoV-2 [2] = format: cell-based
SARS-CoV-1 = conditions: cited from earlier work
canine coronavirus = conditions: previous study (Amici et al. 2006); cited from earlier work
SARS-CoV-2 [3] = format: cell-based; remark: listed apart in the source

Row | Compound | MIST_MERS [1] | MIST_SARS1 [1] | MIST_SARS2 [1] | Saint_MERS [1] | Saint_SARS1 [1] | Saint_SARS2 [1] | Antiviral activity against SARS-CoV-1 (in words) (SARS-CoV-1 (Urbani)) | Antiviral activity against SARS-CoV-2 (in words) (SARS-CoV-2 [2]) | Inhibition of SARS-CoV-1 in vitro (in words) (SARS-CoV-1) | Efficacy against canine coronavirus in vivo (in words) (canine coronavirus) | Inhibition of SARS-CoV-2 in vitro (in words) (SARS-CoV-2 [3])
1 | E-Q9ULP9 | 0 | 0.9165 | 0 | 0 | 0.97 | 0 |  |  |  |  | 
2 | E-Q9UBS3 | 0.9729 | 0 | 0 | 0.98 | 0 | 0 |  |  |  |  | 
3 | E-Q8WVM8 | 0.7214 | 0.3063 | 0 | 0.95 | 0 | 0 |  |  |  |  | 
4 | M-Q96HW7 | 0 | 0.8124 | 0.9433 | 0 | 0.33 | 0.65 |  |  |  |  | 
5 | M-Q9NVH2 | 0 | 0.8943 | 0.8082 | 0 | 0.97 | 0.64 |  |  |  |  | 
6 | CCCCc1oc2ccccc2c1C(=O)c1cc(I)c(OCCN(CC)CC)c(I)c1 [amiodarone] |  |  |  |  |  |  | inhibited | inhibited |  |  | 
7 | COc1ccc2c(c1)c(CC(=O)O)c(C)n2C(=O)c1ccc(Cl)cc1 [indomethacin] |  |  |  |  |  |  |  |  | similarly high levels of the drug were needed for inhibition | showed efficacy | did not inhibit SARS-CoV-2 in vitro at reasonable antiviral concentrations
8 | M-Q8TEM1 | 0.7258 | 0.02986 | 0 | 1 | 0 | 0 |  |  |  |  | 
